Reference: patent US7109193B2, “Tricyclic diazepines tocolytic oxytocin receptor antagonists” (Wyeth, priority 2001, dated 2006)

Biological target: T1, human oxytocin receptor (Homo sapiens, UniProt P30559)
T1 construct: host or cells: CHO cells (pcDNA3.1 vector)
T1 sequence (P30559 1-389): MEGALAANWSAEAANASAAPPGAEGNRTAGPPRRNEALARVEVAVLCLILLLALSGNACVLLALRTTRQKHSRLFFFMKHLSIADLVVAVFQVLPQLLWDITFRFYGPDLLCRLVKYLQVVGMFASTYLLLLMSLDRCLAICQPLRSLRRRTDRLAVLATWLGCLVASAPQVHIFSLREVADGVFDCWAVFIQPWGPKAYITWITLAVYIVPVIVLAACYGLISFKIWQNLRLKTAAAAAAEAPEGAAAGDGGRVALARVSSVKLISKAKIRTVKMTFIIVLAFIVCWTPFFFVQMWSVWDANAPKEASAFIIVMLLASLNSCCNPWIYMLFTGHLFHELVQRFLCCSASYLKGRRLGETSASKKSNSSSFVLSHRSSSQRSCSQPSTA
Test: Oxytocin binding in Chinese Hamster Ovary cell membranes expressing human oxytocin receptors
Conditions: 100 nM, CHO cell membranes, [3H]oxytocin, values without parentheses, read-out: OT % inhibition @ 100% nM

inhibition at 0.1 µM | Structure (SMILES)
73% | COc1cccc(-c2cc(OC)c(C(=O)N3Cc4ccc(C(=O)N5CCN(CCN(C)C)CC5)n4Cc4ccccc43)cc2Cl)c1 [Example 202, {10-[(6-Chloro-3,3′-dimethoxy[1,1′-biphenyl]-4-yl)carbonyl]-10,11-dihydro-5H-pyrrolo[2,1-c][1,4]benzodiazepin-3-yl}{4-[2-(dimethylamino)ethyl]-1-piperazinyl}methanone]
27% | Cc1ccccc1-c1ccc(C(=O)N2Cc3ccc(C(=O)NCCC4CCCN4C)n3Cc3ccccc32)cc1 (stereo not drawn) [Example 166, 10-[(2′-Methyl[1,1′-biphenyl]-4-yl)carbonyl]-N-[2-(1-methyl-2-pyrrolidinyl)ethyl]-10,11-dihydro-5H-pyrrolo[2,1-c][1,4]benzodiazepine-3-carboxamide]
53% | Cc1cc(C(=O)N2Cc3ccc(C(=O)NCCN4CCCCC4)n3Cc3ccccc32)ccc1-c1ccccc1C(F)(F)F [Example 161, 10-{[2-Methyl-2′-(trifluoromethyl)[1,1′-biphenyl]-4-yl]carbonyl}-N-[2-(1-piperidinyl)ethyl]-10,11-dihydro-5H-pyrrolo[2,1-c][1,4]benzodiazepine-3-carboxamide]
60% | COc1cc(C(=O)N2Cc3ccc(C(=O)NCCC4CCCN4C)n3Cc3ccccc32)ccc1-c1ccccc1C (stereo not drawn) [Example 167, 10-[(2-Methoxy-2′-methyl[1,1′-biphenyl]-4-yl)carbonyl]-N-[2-(1-methyl-2-pyrrolidinyl)ethyl]-10,11-dihydro-5H-pyrrolo[2,1-c][1,4]benzodiazepine-3-carboxamide]
71% | C=CCN1CCN(C(=O)c2ccc3n2Cc2ccccc2N(C(=O)c2ccc(-c4cccc(OC)c4)c(C)c2)C3)CC1 [Example 223, (4-Allyl-1-piperazinyl){10-[(3′-methoxy-2-methyl[1,1′-biphenyl]-4-yl)carbonyl]-10,11-dihydro-5H-pyrrolo[2,1-c][1,4]benzodiazepin-3-yl}methanone]
51% | COc1ccccc1-c1ccc(C(=O)N2Cc3ccc(C(=O)N4CCN(C(C)C)CC4)n3Cc3ccccc32)cc1OC [Example 241, {10-[(2,2′-Dimethoxy[1,1-biphenyl]4-yl)carbonyl]-10,11-dihydro-5H-pyrrolo[2,1-c][1,4]benzodiazepin-3-yl}(4-isopropyl-1-piperazinyl)methanone]
98% | COc1ccccc1-c1ccc(C(=O)N2Cc3ccc(C(=O)N(C)C4CCN(C)CC4)n3Cc3ccccc32)cc1 [Example 177, 10-[(2′-Methoxy[1,1′-biphenyl]-4-yl)carbonyl]-N-methyl-N-(1-methyl-4-piperidinyl)-10,11-dihydro-5H-pyrrolo[2,1-c][1,4]benzodiazepine-3-carboxamide]
96% | Cc1ccccc1-c1ccc(C(=O)N2Cc3ccc(C(=O)N(C)C4CCN(C)C4)n3Cc3ccccc32)cc1 (stereo not drawn) [Example 188, N-Methyl-10-[(2′-methyl[1,1′-biphenyl]-4-yl)carbonyl]-N-(1-methyl-3-pyrrolidinyl)-10,11-dihydro-5H-pyrrolo[2,1-c][1,4]benzodiazepine-3-carboxamide]
82% | COc1cc(C(=O)N2Cc3ccc(C(=O)N4CCN(CCN5CCOCC5)CC4)n3Cc3ccccc32)ccc1-c1ccccc1C [Example 210, {10-[(2-Methoxy-2′-methyl[1,1′-biphenyl]-4-yl)carbonyl]-10,11-dihydro-5H-pyrrolo[2,1-c][1,4]benzodiazepin-3-yl}{4-[2-(4-morpholinyl)ethyl]-1-piperazinyl}methanone]
40% | COc1ccccc1-c1ccc(C(=O)N2Cc3ccc(C(=O)NCCC4CCCN4C)n3Cc3ccccc32)cc1OC (stereo not drawn) [Example 171, 10-[(2,2′-Dimethoxy[1,1′-biphenyl]-4-yl)carbonyl]-N-[2-(1-methyl-2-pyrrolidinyl)ethyl]-10,11-dihydro-5H-pyrrolo[2,1-c][1,4]benzodiazepine-3-carboxamide]
26% | O=C(c1ccc2n1Cc1ccccc1N(C(=O)c1ccc(-c3cccc4ccccc34)cc1Cl)C2)N1CCN(CCN2CCOCC2)CC1 [Example 215, {10-[2-Chloro-4-(1-naphthyl)benzoyl]-10,11-dihydro-5H-pyrrolo[2,1-c][1,4]benzodiazepin-3-yl}{4-[2-(4-morpholinyl)ethyl]-1-piperazinyl}methanone]
96% | COc1ccccc1-c1ccc(C(=O)N2Cc3ccc(C(=O)N(C)C4CCN(C)C4)n3Cc3ccccc32)cc1OC (stereo not drawn) [Example 193, 10-[(2,2′-Dimethoxy[1,1′-biphenyl]-4-yl)carbonyl]-N-methyl-N-(1-methyl-3-pyrrolidinyl)-10,11-dihydro-5H-pyrrolo[2,1-c][1,4]benzodiazepine-3-carboxamide]
98% | COc1cc(-c2ccccc2C)c(Cl)cc1C(=O)N1Cc2ccc(C(=O)N3CCN(CCN4CCOCC4)CC3)n2Cc2ccccc21 [Example 217, {10-[(6-Chloro-3-methoxy-2′-methyl[1,1′-biphenyl]-4-yl)carbonyl]-10,11-dihydro-5H -pyrrolo[2,1-c][1,4]benzodiazepin-3-yl}{4-[2-(4-morpholinyl)ethyl]-1-piperazinyl}methanone]
64% | COc1ccccc1-c1ccc(C(=O)N2Cc3ccc(C(=O)NCCC4CCCN4C)n3Cc3ccccc32)cc1 (stereo not drawn) [Example 165, 10-[(2′-Methoxy[1,1′-biphenyl]-4-yl)carbonyl]-N-[2-(1-methyl-2-pyrrolidinyl)ethyl]-10,11-dihydro-5H-pyrrolo[2,1-c][1,4]benzodiazepine-3-carboxamide]
87% | C=CCN1CCN(C(=O)c2ccc3n2Cc2ccccc2N(C(=O)c2ccc(-c4ccccc4C)c(OC)c2)C3)CC1 [Example 225, (4-Allyl-1-piperazinyl){10-[(2-methoxy-2′-methyl[1,1′-biphenyl]-4-yl)carbonyl]-10,11-dihydro-5H-pyrrolo[2,1-c][1,4]benzodiazepin-3-yl}methanone]
32% | COc1ccccc1-c1ccc(C(=O)N2Cc3ccc(C(=O)O)n3Cc3ccccc32)cc1C [Example 9, 10-[(2′-Methoxy-2-methyl-[1,1′-biphenyl]-4-yl)carbonyl]-10,11-dihydro-5H-pyrrolo[2,1-c][1,4]benzodiazepine-3-carboxylic acid]
59% | Cc1cc(C(=O)N2Cc3ccc(C(=O)NCCC4CCCN4C)n3Cc3ccccc32)ccc1-c1ccccc1C(F)(F)F (stereo not drawn) [Example 174, N-[2-(1-Methyl-2-pyrrolidinyl)ethyl]-10-{[2-methyl-2′-(trifluoromethyl)[1,1′-biphenyl]-4-yl]carbonyl}-10,11-dihydro-5H-pyrrolo[2,1-c][1,4]benzodiazepine-3-carboxamide]
87% | Cc1ccccc1-c1ccc(C(=O)N2Cc3ccc(C(=O)N4CCN(CCN(C)C)CC4)n3Cc3ccccc32)cc1 [Example 200, {4-[2-(Dimethylamino)ethyl]-1-piperazinyl}{10-[(2′-methyl[1,1′-biphenyl]-4-yl)carbonyl]-10,11-dihydro-5H-pyrrolo[2,1-c][1,4]benzodiazepin-3-yl}methanone]
94% | Cc1ccccc1-c1ccc(C(=O)N2Cc3ccc(C(=O)N4CCN(CCN(C)C)CC4)n3Cc3ccccc32)cc1C [Example 198, {4-[2-(Dimethylamino)ethyl]-1-piperazinyl}{10-[(2,2′-dimethyl[1,1′-biphenyl]-4-yl)carbonyl]-10,11-dihydro-5H-pyrrolo[2,1-c][1,4]benzodiazepin-3-yl}methanone]
96% | Cc1cc(C(=O)N2Cc3ccc(C(=O)N(C)C4CCN(C)C4)n3Cc3ccccc32)ccc1-c1ccccc1C(F)(F)F (stereo not drawn) [Example 194, N-Methyl-N-(1-methyl-3-pyrrolidinyl)-10-{[2-methyl-2′-(trifluoromethyl)[1,1′-biphenyl]-4-yl]carbonyl}-10,11-dihydro-5H-pyrrolo[2,1-c][1,4]benzodiazepine-3-carboxamide]
21% | COc1cc2c(cc1OC)N(C(=O)c1ccc(-c3ccccc3C(F)(F)F)c(C)c1)Cc1cccn1C2 [Example 12, 7,8-Dimethoxy-[10,11-dihydro-5H-pyrrolo[2,1-c][1,4]benzodiazepin-10-yl][2-methyl-2′-(trifluoromethyl)[1,1′-biphenyl]-4-yl]methanone]
46% | COc1cc(C(=O)N2Cc3ccc(C(=O)N4CCN(C(C)C)CC4)n3Cc3ccccc32)ccc1-c1cccc2ccccc12 [Example 236, (4-Isopropyl-1-piperazinyl){10-[3-methoxy-4-(1-naphthyl)benzoyl]-10,11-dihydro-5H -pyrrolo[2,1-c][1,4]benzodiazepin-3-yl}methanone]
81% | COc1cccc(-c2ccc(C(=O)N3Cc4ccc(C(=O)N5CCN(CCN6CCOCC6)CC5)n4Cc4ccccc43)cc2C)c1 [Example 208, {10-[(3′-Methoxy-2-methyl[1,1′-biphenyl]-4-yl)carbonyl]-10,11-dihydro-5H-pyrrolo[2,1-c][1,4]benzodiazepin-3-yl}{4-[2-(4-morpholinyl)ethyl]-1-piperazinyl}methanone]
86% | COc1cc(C(=O)N2Cc3ccc(C(=O)N4CCN(CCN(C)C)CC4)n3Cc3ccccc32)ccc1-c1ccccc1C [Example 201, {4-[2-(Dimethylamino)ethyl]-1-piperazinyl}{10-[(2-methoxy-2′-methyl[1,1′-biphenyl]-4-yl)carbonyl]-10,11-dihydro-5H-pyrrolo[2,1-c][1,4]benzodiazepin-3-yl}methanone]
